We go through 46 compounds from PubChem BioAssay AID652153 (Molecular Libraries Program, Specialized Chemistry Center, …, 2013).

The structures appear in SMILES notation. Calls of active or inactive are those of the source. The rule behind the calls is not given here.

The target in the assay is Rac GTPase-activating protein 1 (Homo sapiens) (UniProt Q9H0H5). Nature of the assay: MgcRacGAP inhibitors, selectivity among RhoGAPs, dose response, selectivity assay, biochemical (AID 652153). The conditions noted are these: MgcRacGAP GAP activity on Rac1F28L, Biomol green phosphate.
Rac GTPase-activating protein 1 (Homo sapiens), sequence (Q9H0H5 whole entry, looked up): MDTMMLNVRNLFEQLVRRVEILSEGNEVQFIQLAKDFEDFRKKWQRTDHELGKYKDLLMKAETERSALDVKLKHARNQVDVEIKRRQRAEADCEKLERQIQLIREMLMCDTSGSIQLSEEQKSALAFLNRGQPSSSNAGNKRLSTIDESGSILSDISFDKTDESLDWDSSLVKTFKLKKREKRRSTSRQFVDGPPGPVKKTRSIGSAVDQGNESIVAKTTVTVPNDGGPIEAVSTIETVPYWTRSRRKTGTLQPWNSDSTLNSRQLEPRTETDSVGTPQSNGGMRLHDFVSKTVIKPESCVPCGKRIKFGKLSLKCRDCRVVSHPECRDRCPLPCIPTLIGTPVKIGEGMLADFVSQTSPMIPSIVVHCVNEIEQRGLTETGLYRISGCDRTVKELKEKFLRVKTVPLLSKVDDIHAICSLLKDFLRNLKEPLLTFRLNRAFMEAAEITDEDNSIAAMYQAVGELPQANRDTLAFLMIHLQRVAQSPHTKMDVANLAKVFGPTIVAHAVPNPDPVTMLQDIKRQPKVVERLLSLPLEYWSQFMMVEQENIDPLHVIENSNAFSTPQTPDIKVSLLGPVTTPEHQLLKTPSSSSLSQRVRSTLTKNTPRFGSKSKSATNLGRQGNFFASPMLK

On to `CN(C)c1ncc(C2=C(Cl)C(=O)C(N3CCCC3)=C(Cl)C2=O)s1`, for which the IC50 result was “inactive”.

As for `O=c1c2ccccc2sn1-c1ccc(Cl)cc1Cl`, the IC50 entry was “inactive”.

For the compound `COc1ccc(NC2CCCN(C(=O)C3(C)CCCCC3)C2)cc1` (stereo unspecified), the IC50 entry was “inactive”.

Take `CN(C)c1nc(=NCc2cccs2)ss1`: the IC50 entry was “inactive”.

With `Nc1ccc(OCc2ccco2)cc1`, the IC50 result was “inactive”.

Regarding `C[n+]1c(-c2ccc(C=NNC(=O)c3ccc(C(=O)NN=Cc4ccc(-c5cn6ccccc6[n+]5C)cc4)cc3)cc2)cn2ccccc21`, the IC50 result is “inactive”.

In the case of `O=C1C(=Cc2ccco2)CCC1=Cc1ccco1`, the IC50 result was “inactive”.

In the case of `O=c1c2cc(F)ccc2sn1-c1ccccc1`, the IC50 entry is “inactive”.

Regarding `O=C(O)c1cc(N2N=C(C(F)(F)F)/C(=C/C=C/c3ccco3)C2=O)ccc1Cl`, the IC50 result was “inactive”.

Take `O=c1c2ccccc2sn1-c1ccc(Cl)cc1`: the IC50 entry was “inactive”.

Regarding `CN(C)c1ccc(/C=C/c2cc[n+](C)c3ccccc23)cc1`, the IC50 entry was “inactive”.

For `COc1ccc(/C=N/Nc2cc(C)nc3ccc(OC)cc23)c(OC)c1`, the IC50 result was “inactive”.

As to `Nc1n[nH]c(=S)n1/N=C1/C(=O)Nc2ccccc21`, the IC50 result is “inactive”.

Regarding `COc1ccc(-n2sc3ccc(F)cc3c2=O)cc1`, the IC50 result is “inactive”.

Consider `COc1ccc(Nc2ccc3ccccc3c2)cc1`, for which the IC50 entry was “inactive”.

As to `Cc1c(Cl)sn(-c2ccc(Cl)cc2)c1=O`, the IC50 result was “inactive”.

In the case of `Cc1cc(N)c2cc(NC(=O)/C=C/c3ccccc3Cl)ccc2n1`, the IC50 entry is “inactive”.

With `O=C(O)c1cccc(-n2sc3ccccc3c2=O)c1`, the IC50 result is “inactive”.

For the compound `O=c1c2ccccc2sn1-c1ccccc1F`, the IC50 result is “inactive”.

In the case of `CSc1nc(N)c(N=Nc2ccc([As](=O)(O)O)cc2)c(=O)[nH]1`, the IC50 result is “inactive”.

As to `CN(C)c1ccc(C=c2c3cc(O)ccc3n3c2cc(-c2ccccc2)[n+]3C)cc1`, the IC50 result is “inactive”.

Turning to `O=C1C=CC(=O)N1c1ccccc1N1C(=O)C=CC1=O`, the IC50 entry is “inactive”.

For `CC1=NNC(=O)C1Br` (stereo unspecified), the IC50 result is “inactive”.

With `O=C(O)c1cc(N2C(=O)C=CC2=O)cc(N2C(=O)C=CC2=O)c1`, the IC50 result is “inactive”.

As for `O=c1c2ccc(F)cc2sn1-c1ccccc1`, the IC50 entry was “inactive”.

For `Cc1ccc(C)c(-n2sc3ccc(F)cc3c2=O)c1`, the IC50 result was “inactive”.

Regarding `CCN(CC)c1ccc(C(=C2C=CC(=[N+](CC)CC)C=C2)c2ccc(N(CC)CC)cc2)cc1`, the IC50 result is “inactive”.

As for `COC(=O)c1cccc(-n2sc3ccccc3c2=O)c1`, the IC50 entry was “inactive”.

Regarding `Cc1cc(C)c2c(=N)c3ccccc3n(CCCCCCCCn3c4ccccc4c(=N)c4c(C)cc(C)nc43)c2n1`, the IC50 result is “inactive”.

As for `O=c1c2sc3ccccc3c2[nH]c(=S)n1CCN1CCOCC1`, the IC50 entry was “inactive”.

In the case of `O=c1c2cc(F)ccc2sn1-c1ccccc1Cl`, the IC50 was 920 nM.

In the case of `CC1OC(CC(=O)O)CC2=C1C(=O)c1c(O)cccc1C2=O` (stereo unspecified), the IC50 entry was “inactive”.

Consider `O=C1C(Cl)=C(NC(=O)c2ccccc2)C(=O)C(Cl)=C1NC(=O)c1ccccc1`, for which the IC50 entry is “inactive”.

As for `O=C1NC(=S)N(c2ccccc2)C(=O)/C1=C/c1ccco1`, the IC50 entry was “inactive”.

Regarding `O=c1c2ccccc2sn1-c1ccc(F)cc1`, the IC50 result was “inactive”.

With `O=C1C=CC(=O)c2c(O)c(N3CCN(CCO)CC3)c(Cl)c(O)c21`, the IC50 result is “inactive”.

Consider `O=C(Nc1ccccc1Cl)/C(Cl)=C(\Cl)S(=O)c1ccccc1` (stereo unspecified), for which the IC50 result is “inactive”.

Turning to `Cn1ccc(=Nc2ccc(NC(=O)c3ccc(N=c4ccn(C)c5ccc([N+](=O)[O-])cc45)cc3)cc2)cc1`, the IC50 is 939 nM.

Consider `COc1ccc(-n2sc3ccccc3c2=O)cc1`, for which the IC50 result is “inactive”.

Turning to `Cc1ccc(-n2sc3cc(F)ccc3c2=O)c(C)c1`, the IC50 entry is “inactive”.

Regarding `O=c1c2ccccc2sn1-c1cccc(Cl)c1`, the 50% inhibitory concentration (IC50) is 690 nM.

For the compound `O=C1C=CC(=O)c2c(O)c(N3CCN(CCOCCO)CC3)c(Br)c(O)c21`, the IC50 result is “inactive”.

As for `O=C(O)C1CSC(c2ccco2)N1` (stereo unspecified), the IC50 result was “inactive”.

With `O=C1C(SCCO)=C(SCCO)C(=O)c2ccccc21`, the IC50 result is “inactive”.

For `CC(=O)Nc1ccc2sn(-c3ccccc3)c(=O)c2c1`, the IC50 was 643 nM.

Take `CCN1CCN(Cc2ccc(NC(=O)c3ccc(C)c(/C=C/c4cnc(Nc5cc(N6CCNCC6)nc(C)n5)cn4)c3)cc2C(F)(F)F)CC1`: the IC50 entry is “inactive”.

By IC50 is commonly meant the midpoint of a concentration-inhibition curve.
